Laboratory results published in patent US11673901B2, “Polycyclic compounds as allosteric SHP2 inhibitors” (Revolution Medicines, Inc., priority 2017, dated 2023).

Target: SHP2 (Homo sapiens (Human), UniProt Q06124)
Experiment: SHP2 allosteric inhibition assay (DiFMUP prompt fluorescence)
Format: biochemical
Conditions: 0.2 nM SHP2 activated with 0.5 μM Activating Peptide 1 or 2, substrate DiFMUP
Description: Without wishing to be bound by theory, SHP2 is allosterically activated through binding of bis-tyrosyl-phosphorylated peptides to its Src Homology 2 (SH2) domains. The latter activation step leads to the release of the auto-inhibitory interface of SHP2, which in turn renders the SHP2 protein tyrosine phosphatase (PTP) active and available for substrate recognition and reaction catalysis. The catalytic activity of SHP2 was monitored using the surrogate substrate DiFMUP in a prompt fluorescence assay format.
The phosphatase reactions were performed at room temperature in 96-well black polystyrene plate, flat bottom, non-binding surface (Corning, Cat #3650) using a final reaction volume of 100 μL and the following assay buffer conditions: 50 mM HEPES, pH 7.2, 100 mM NaCl, 0.5 mM EDTA, 0.05% P-20, 1 mM DTT.
The inhibition of SHP2 by compounds of the invention (concentrations varying from 0.00005-10 μM) was monitored using an assay in which 0.2 nM of SHP2 was incubated with 0.5 μM of Activating Peptide 1 (sequence: H2N-LN(pY)IDLDLV(dPEG8)LST(pY)ASINFQK-amide) or Activating Peptide 2 (sequence: H2N-LN(pY)AQLWHA(dPEG8)LTI(pY)ATIRRF-amide). After 30-60-minutes incubation at 25° C., the surrogate substrate DiFMUP (Invitrogen, Cat #D6567) was added to the reaction and activity was determined by a kinetic read using a microplate reader (Envision, Perkin-Elmer or Spectramax M5, Molecular Devices). The excitation and emission wavelengths were 340 nm and 450 nm, respectively. Initial rates were determined from a linear fit of the data, and the inhibitor dose response curves were analyzed using normalized IC50 regression curve fitting with control based normalization.

Chain of SHP2 (Q06124 whole entry): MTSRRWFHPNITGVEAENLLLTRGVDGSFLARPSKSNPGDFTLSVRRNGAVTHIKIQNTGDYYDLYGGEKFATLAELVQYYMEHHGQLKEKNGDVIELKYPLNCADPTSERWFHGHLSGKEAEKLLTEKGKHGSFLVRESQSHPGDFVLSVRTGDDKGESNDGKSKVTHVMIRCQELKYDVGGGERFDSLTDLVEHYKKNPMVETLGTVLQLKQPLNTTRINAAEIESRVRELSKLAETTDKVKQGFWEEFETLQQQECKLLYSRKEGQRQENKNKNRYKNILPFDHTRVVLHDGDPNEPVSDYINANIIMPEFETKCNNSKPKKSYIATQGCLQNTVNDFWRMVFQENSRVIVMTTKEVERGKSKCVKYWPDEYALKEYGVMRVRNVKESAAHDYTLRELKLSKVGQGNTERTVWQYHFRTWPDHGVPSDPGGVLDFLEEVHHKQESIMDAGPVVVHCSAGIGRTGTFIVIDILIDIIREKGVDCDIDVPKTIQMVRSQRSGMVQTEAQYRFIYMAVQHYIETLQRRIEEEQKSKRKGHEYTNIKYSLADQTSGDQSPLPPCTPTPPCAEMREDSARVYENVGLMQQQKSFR

Row | Compound | IC50 (Table 2, class symbols) [nM] | IC50 (Table 1) [nM]
1 | Cc1nc(N2CCC3(CC2)CO[C@@H](C)[C@H]3N)n2ccnc2c1-c1cccc(Cl)c1Cl [Compound 8, (3S,4S)-8-[8-(2,3-dichlorophenyl)-7-methylimidazo[1,2-c]pyrimidin-5-yl]-3-methyl-2-oxa-8-azaspiro[4.5]decan-4-amine] | ≤ 50 | 
2 | Nc1nccc(Sc2cnc(O[C@H]3CC[C@@H](N)C3)n3ccnc23)c1Cl [Compound 81, 4-[(5-{[(1S,3R)-3-aminocyclopentyl]oxy}imidazo[1,2-c]pyrimidin-8-yl)sulfanyl]-3-chloropyridin-2-amine] | > 500 | 
3 | COc1cccc(-c2c(C)nc(N3CCC4(CC3)CO[C@@H](C)[C@H]4N)n3ccnc23)c1Cl [Compound 9, (3S,4S)-8-[8-(2-chloro-3-methoxyphenyl)-7-methylimidazo[1,2-c]pyrimidin-5-yl]-3-methyl-2-oxa-8-azaspiro[4.5]decan-4-amine] | ≤ 50 | 
4 | C[C@@H]1OCC2(CCN(c3ncc(Sc4ccnc5[nH]ccc45)c4nccn34)CC2)[C@@H]1N [Compound 15, (3S,4S)-3-methyl-8-(8-{1H-pyrrolo[2,3-b]pyridin-4-ylsulfanyl}imidazo[1,2-c]pyrimidin-5-yl)-2-oxa-8-azaspiro[4.5]decan-4-amine] | ≤ 50 | 
5 | Nc1nccc(Sc2cnc(N3CCC4(CC3)CNC4)n3ccnc23)c1Cl [Compound 20, 3-chloro-4-[(5-{2,7-diazaspiro[3.5]nonan-7-yl}imidazo[1,2-c]pyrimidin-8-yl)sulfanyl]pyridin-2-amine] | 50 to 500 | 
6 | Nc1nccc(Sc2cnc(N3CCC[C@@H]3CO)n3ccnc23)c1Cl [Compound 72] | > 500 | 
7 | Cc1nc(N2CCC3(CC2)CO[C@@H](C)[C@H]3N)n2cnnc2c1Sc1ccnc(N)c1Cl [Compound 61, (3S,4S)-8-{8-[(2-amino-3-chloropyridin-4-yl)sulfanyl]-7-methyl-[1,2,4]triazolo[4,3-c]pyrimidin-5-yl}-3-methyl-2-oxa-8-azaspiro[4.5]decan-4-amine] | ≤ 50 | 
8 | Cc1nc(N2CCC3(CC2)CO[C@@H](C)[C@H]3N)n2ccnc2c1-c1ccc2ccnn2c1 [Compound 48, (3S,4S)-3-methyl-8-(7-methyl-8-pyrazolo[1,5-a]pyridin-6-yl-imidazo[1,2-c]pyrimidin-5-yl)-2-oxa-8-azaspiro[4.5]decan-4-amine] | ≤ 50 | 
9 | CC1(N)CCN(c2ncc(-c3cccc(Cl)c3Cl)c3nccn23)CC1 [Compound 3, 1-[8-(2,3-dichlorophenyl)imidazo[1,2-c]pyrimidin-5-yl]-4-methylpiperidin-4-amine] | > 500 | 
10 | Cc1nc(N2CCC3(CC2)CO[C@@H](C)[C@H]3N)n2cnnc2c1-c1cccc(Cl)c1Cl [Compound 6 (Example 6)] |  | 10
11 | Cc1nc(N2CCC3(CC2)CC(N2CC(C#N)C2)C[C@H]3N)n2ccnc2c1-c1cccc(Cl)c1Cl (stereo partly drawn) [Compound 62, 1-[(4R)-4-amino-8-[8-(2,3-dichlorophenyl)-7-methylimidazo[1,2-c]pyrimidin-5-yl]-8-azaspiro[4.5]decan-2-yl]azetidine-3-carbonitrile] | ≤ 50 | 
12 | C[C@@H]1OCC2(CCN(c3ncc(Sc4ccnc(N)c4Cl)c4nccn34)CC2)[C@@H]1N [Compound 1, (3S,4S)-8-{8-[(2-amino-3-chloropyridin-4-yl)sulfanyl]imidazo[1,2-c]pyrimidin-5-yl}-3-methyl-2-oxa-8-azaspiro[4.5]decan-4-amine] | ≤ 50 | 
13 | COc1nccc(-c2c(C)nc(N3CCC4(CC3)CO[C@@H](C)[C@H]4N)n3ccnc23)c1Cl [Compound 47, (3S,4S)-8-[8-(3-chloro-2-methoxypyridin-4-yl)-7-methylimidazo[1,2-c]pyrimidin-5-yl]-3-methyl-2-oxa-8-azaspiro[4.5]decan-4-amine] | ≤ 50 | 
14 | C[C@@H]1OCC2(CCN(c3ncc(Sc4cccc(Cl)c4Cl)c4nccn34)CC2)[C@@H]1N [Compound 11, (3S,4S)-8-{8-[(2,3-dichlorophenyl)sulfanyl]imidazo[1,2-c]pyrimidin-5-yl}-3-methyl-2-oxa-8-azaspiro[4.5]decan-4-amine] | ≤ 50 | 
15 | COc1cc(Cl)c(Cl)c(-c2c(C)nc(N3CCC4(CC3)CO[C@@H](C)[C@H]4N)n3ccnc23)c1 [Compound 49, (3S,4S)-8-[8-(2,3-dichloro-5-methoxyphenyl)-7-methylimidazo[1,2-c]pyrimidin-5-yl]-3-methyl-2-oxa-8-azaspiro[4.5]decan-4-amine] | ≤ 50 | 
16 | Cc1nc(N2CCC3(CC2)CO[C@@H](C)[C@H]3N)n2cnnc2c1-c1cccc(Cl)c1Cl [Compound 6, (3S,4S)-8-[8-(2,3-dichlorophenyl)-7-methyl-[1,2,4]triazolo[4,3-c]pyrimidin-5-yl]-3-methyl-2-oxa-8-azaspiro[4.5]decan-4-amine] | ≤ 50 | 
17 | Cc1nc(N2CCC3(CC2)CO[C@@H](C)[C@H]3N)n2ccnc2c1-c1ccc(O)c(Cl)c1Cl [Compound 54, 4-{5-[(3S,4S)-4-amino-3-methyl-2-oxa-8-azaspiro[4.5]decan-8-yl]-7-methylimidazo[1,2-c]pyrimidin-8-yl}-2,3-dichlorophenol] | ≤ 50 | 
18 | C[C@@H]1OCC2(CCN(c3ncc(Sc4ccnc(N)c4)c4nccn34)CC2)[C@@H]1N [Compound 16, (3S,4S)-8-{8-[(2-aminopyridin-4-yl)sulfanyl]imidazo[1,2-c]pyrimidin-5-yl}-3-methyl-2-oxa-8-azaspiro[4.5]decan-4-amine] | 50 to 500 | 
19 | COc1cccc(-c2c(C)nc(N3CCC4(CC3)C[C@@H](OC3COC3)C[C@H]4N)n3ccnc23)c1Cl [Compound 64, (2R,4R)-8-[8-(2-chloro-3-methoxy-phenyl)-7-methyl-imidazo[1,2-c]pyrimidin-5-yl]-2-(oxetan-3-yloxy)-8-azaspiro[4.5]decan-4-amine] | ≤ 50 | 
20 | Nc1nccc(Sc2cnc(N3CC[C@@H](O)C3)n3ccnc23)c1Cl [Compound 77] | > 500 | 
21 | C[C@@H]1OCC2(CCN(c3ncc(Sc4cccc(C(=O)N(C)C)c4Cl)c4nccn34)CC2)[C@@H]1N [Compound 14, 3-({5-[(3S,4S)-4-amino-3-methyl-2-oxa-8-azaspiro[4.5]decan-8-yl]imidazo[1,2-c]pyrimidin-8-yl}sulfanyl)-2-chloro-N,N-dimethylbenzamide] | 50 to 500 | 
22 | Nc1nccc(Sc2cnc(N3CC4(CC(N)C4)C3)n3ccnc23)c1Cl [Compound 19, 2-{8-[(2-amino-3-chloropyridin-4-yl)sulfanyl]imidazo[1,2-c]pyrimidin-5-yl}-2-azaspiro[3.3]heptan-6-amine] | > 500 | 
23 | CC1(N)CN(c2ncc(Sc3ccnc(N)c3Cl)c3nccn23)C1 [Compound 26, 4-{[5-(3-amino-3-methylazetidin-1-yl)imidazo[1,2-c]pyrimidin-8-yl]sulfanyl}-3-chloropyridin-2-amine] | > 500 | 
24 | Cc1nc(N2CCC3(CC2)CO[C@@H](C)[C@H]3N)n2ccnc2c1-c1cccc(C#N)c1Cl [Compound 45, 3-{5-[(3S,4S)-4-amino-3-methyl-2-oxa-8-azaspiro[4.5]decan-8-yl]-7-methylimidazo[1,2-c]pyrimidin-8-yl}-2-chlorobenzonitrile] | ≤ 50 | 
25 | Cc1nc(N2CCC3(CC2)CO[C@@H](C)[C@H]3N)n2ccnc2c1-c1cccc2cc[nH]c12 [Compound 35, (3S,4S)-8-[8-(1H-indol-7-yl)-7-methylimidazo[1,2-c]pyrimidin-5-yl]-3-methyl-2-oxa-8-azaspiro[4.5]decan-4-amine] | ≤ 50 | 
